Experimental data taken from patent publication US12521393B2, “Cytotoxicity targeting chimeras for CCR2-expressing cells” (GLAXOSMITHKLINE INTELLECTUAL PROPERTY DEVELOPMENT LIMITED, priority 2021, dated 2026).

These compounds were tested on endogenous target monocytes in human PBMC (assay: PBMC ex vivo monocyte depletion flow cytometry assay (Example 200)). Conditions: with anti-cotinine antibody (SEQ ID NO: 11/12), 18-24 hours, EC50 in molar, read-out: Ex Vivo Depletion Assay pEC50 (converted).
Format: cell-based
Description: A human PBMC (peripheral blood mononuclear cells) monocyte depletion flow cytometry assay was developed to screen compounds in a 384-well plate format. This assay incorporated endogenous natural killer cells to deplete endogenous target monocytes.
To screen compounds in the human PBMC monocyte depletion flow cytometry assay, 11-point dose-response curves were made from 1 mM stocks in neat DMSO by serially diluting an ARM compound of Formula (I) four-fold into a 384-well plate row-wise. These serially diluted compounds were then stamped into a flat bottom polypropylene 384-well plate (Greiner Bio-One) at 100 nL/well. Fifty microliters of 30 μg/mL anti-cotinine antibody having a heavy chain sequence of SEQ ID NO: 11 and a light chain sequence of SEQ ID NO: 12 (rabbit variable region with human IgG1 Fc domain containing a DE mutation (S239D/1332E)) that had been diluted in assay medium (RPMI 1640 (Gibco) containing 10% fetal bovine serum (Gibco), 1% Glutamax (Gibco) and 1% sodium pyruvate (Corning) was added to the wells of the plate. The plate was centrifuged for 1 min at 500 rpm (revolutions per minute) and then shaken for 5 min at room temperature. The plate was incubated for 15 minutes at 37° C./5% CO2.
Frozen PBMC cells (HemaCare BioResearch) were thawed and centrifuged at 1,200 rpm for 4 minutes. The cells were diluted to a cell density of 2×10^6 cells/mL in assay medium. Fifty microliters of the diluted cells were added to the wells of the plate. The plate was centrifuged for 1 min at 500 rpm and incubated for 18-24 hours at 37° C./5% CO2.
After 18-24 hours incubation, 2 μL of 6.25 μg human FC block (BD Pharmingen) that was diluted in assay medium was added to the wells of the plate. The plate was centrifuged for 1 minute at 500 rpm and then incubated at room temperature for 15 minutes. Five microliters of 750 nM Helix NP NIR (Biolegend) that had been diluted in assay medium was added to the wells of the plate. Nine microliters of antibody cocktail containing 1/5 diluted fluorescein isothiocyanate (FITC) labeled anti-CD45 antibody (Beckman Coulter), PC7 labeled anti-CD14 antibody (Beckman Coulter) and phyocoerythrin (PE) anti-CD4 antibody (Beckman Coulter) was then added to the wells of the plate. The plate was centrifuged for 1 min at 500 rpm and incubated for 30 minutes at 4-8° C. Samples from the plate were run on BD FACS Canto II flow cytometer and data was analyzed using FlowJo software.
ARMs compounds of Formula (I) of the invention were tested for the ability to deplete monocytes in the above assay in one or more experimental runs and the results are shown in Table 3 below. Potency of the compounds of the invention is reported as a pEC50 value. The pEC50 value is the negative log of the EC50 value, wherein the EC50 value is the half maximal effective concentration measured in molar (M). For compounds tested in more than one experimental run, the pEC50 value is reported as an average or as the individual values measured

Compound | EC50
CC(C)N(C)[C@@H]1CC[C@H](N2CC[C@H](Nc3ncnc4ccc(C(F)(F)F)cc34)C2=O)[C@H](NC(=O)C2CCC3(CC2)CCN(CCOCCOCCNC(=O)[C@H]2CC(=O)N(C)[C@@H]2c2cccnc2)CC3)C1 [Example 93, N-((1R,2S,5R)-5-(Isopropyl(methyl)amino)-2-((S)-2-oxo-3-((6-(trifluoromethyl)quinazolin-4-yl)amino)pyrrolidin-1-yl)cyclohexyl)-3-(2-(2-(2-((2S,3S)-1-methyl-5-oxo-2-(pyridin-3-yl)pyrrolidine-3-carboxamido)ethoxy)ethoxy)ethyl)-3-azaspiro [5.5]undecane-9-carboxamide] | 126 nM
CC(C)N(C)[C@@H]1CC[C@H](N2CC[C@H](Nc3ncnc4ccc(C(F)(F)F)cc34)C2=O)[C@H](NC(=O)[C@H]2CC[C@@H](NC(=O)C3CCC4(CC3)CCN(C(=O)[C@H]3CC(=O)N(C)[C@@H]3c3cccnc3)CC4)CC2)C1 [Example 95, N-((1S,4R)-4-(((1R,2S,5R)-5-(Isopropyl(methyl)amino)-2-((S)-2-oxo-3-((6-(trifluoromethyl)quinazolin-4-yl)amino)pyrrolidin-1-yl)cyclohexyl)carbamoyl)cyclohexyl)-3-((2S,3S)-1-methyl-5-oxo-2-(pyridin-3-yl)pyrrolidine-3-carbonyl)-3-azaspiro[5.5]undecane-9-carboxamide] | 631 nM
CC(C)N(C)[C@@H]1CC[C@H](N2CC[C@H](Nc3ncnc4ccc(C(F)(F)F)cc34)C2=O)[C@H](NC(=O)[C@H]2CC[C@H](N3CCN(C(=O)CCOCCOCCNC(=O)[C@H]4CC(=O)N(C)[C@@H]4c4cccnc4)CC3)CC2)C1 [Example 96, (2S,3S)-N-(2-(2-(3-(4-((1R,4r)-4-(((1R,2S,5R)-5-(Isopropyl(methyl)amino)-2-((S)-2-oxo-3-((6-(trifluoromethyl)quinazolin-4-yl)amino)pyrrolidin-1-yl)cyclohexyl)carbamoyl)cyclohexyl)piperazin-1-yl)-3-oxopropoxy)ethoxy)ethyl)-1-methyl-5-oxo-2-(pyridin-3-yl)pyrrolidine-3-carboxamide] | 1 nM
CC(C)N(C)[C@@H]1CC[C@H](N2CC[C@H](Nc3ncnc4ccc(C(F)(F)F)cc34)C2=O)[C@H](NC(=O)[C@H]2CC[C@H](N3CCN(C4CC(CCNC(=O)[C@H]5CC(=O)N(C)[C@@H]5c5cccnc5)C4)CC3)CC2)C1 (stereo partly drawn) [Example 97, (2S,3S)-N-(2-(3-(4-((1R,4S)-4-(((1R,2S,5R)-5-(Isopropyl(methyl)amino)-2-((S)-2-oxo-3-((6-(trifluoromethyl)quinazolin-4-yl)amino)pyrrolidin-1-yl)cyclohexyl)carbamoyl)cyclohexyl)piperazin-1-yl)cyclobutyl)ethyl)-1-methyl-5-oxo-2-(pyridin-3-yl)pyrrolidine-3-carboxamide] | 0.0631 nM
CC(C)N(C)[C@@H]1CC[C@H](N2CC[C@H](Nc3ncnc4ccc(C(F)(F)F)cc34)C2=O)[C@H](NC(=O)[C@H]2CC[C@@H](NC(=O)CCOCCNC(=O)CCOCCCNC(=O)[C@H]3CC(=O)N(C)[C@@H]3c3cccnc3)CC2)C1 [Example 101, (2S,3S)-N-(3-(3-((2-(3-(((1S,4s)-4-(((1R,2S,5R)-5-(Isopropyl(methyl)amino)-2-((S)-2-oxo-3-((6-(trifluoromethyl)quinazolin-4-yl)amino)pyrrolidin-1-yl)cyclohexyl)carbamoyl)cyclohexyl)amino)-3-oxopropoxy)ethyl)amino)-3-oxopropoxy)propyl)-1-methyl-5-oxo-2-(pyridin-3-yl)pyrrolidine-3-carboxamide] | 0.631 nM
CN1C(=O)C[C@H](C(=O)NCCOCC(=O)NCCOCCC(=O)NCCOCCC(=O)N[C@@H]2C[C@H](NC(C)(C)C)CC[C@@H]2N2CC[C@H](Nc3ncnc4ccc(C(F)(F)F)cc34)C2=O)[C@H]1c1cccnc1 [Example 106, (2S,3S)-N-(19-(((1R,2S,5R)-5-(tert-Butylamino)-2-((S)-2-oxo-3-((6-(trifluoromethyl)quinazolin-4-yl)amino)pyrrolidin-1-yl)cyclohexyl)amino)-5,12,19-trioxo-3,9, 16-trioxa-6, 13-diazanonadecyl)-1-methyl-5-oxo-2-(pyridin-3-yl)pyrrolidine-3-carboxamide] | 0.794 nM
CC(C)N(C)[C@@H]1CC[C@H](N2CC[C@H](Nc3ncnc4ccc(C(F)(F)F)cc34)C2=O)[C@H](NC(=O)[C@H]2CC[C@H](NC(=O)CCO[C@H]3CC[C@@H](OCCNC(=O)[C@H]4CC(=O)N(C)[C@@H]4c4cccnc4)CC3)CC2)C1 [Example 114, (2S,3S)-N-(2-(((1S,4R)-4-(3-(((1R,4R)-4-(((1R,2S,5R)-5-(Isopropyl(methyl)amino)-2-((S)-2-oxo-3-((6-(trifluoromethyl)quinazolin-4-yl)amino)pyrrolidin-1-yl)cyclohexyl)carbamoyl)cyclohexyl)amino)-3-oxopropoxy)cyclohexyl)oxy)ethyl)-1-methyl-5-oxo-2-(pyridin-3-yl)pyrrolidine-3-carboxamide] | 2.51 nM
CC(C)N(C)[C@@H]1CC[C@H](N2CC[C@H](Nc3ncnc4ccc(C(F)(F)F)cc34)C2=O)[C@H](NC(=O)[C@H]2C[C@H](NC(=O)CCO[C@H]3CC[C@@H](OCCNC(=O)[C@H]4CC(=O)N(C)[C@@H]4c4cccnc4)CC3)C2)C1 [Example 116, (2S,3S)-N-(2-(((1S,4R)-4-(3-(((1R,3R)-3-(((1R,2S,5R)-5-(Isopropyl(methyl)amino)-2-((S)-2-oxo-3-((6-(trifluoromethyl)quinazolin-4-yl)amino)pyrrolidin-1-yl)cyclohexyl)carbamoyl)cyclobutyl)amino)-3-oxopropoxy)cyclohexyl)oxy)ethyl)-1-methyl-5-oxo-2-(pyridin-3-yl)pyrrolidine-3-carboxamide] | 0.0398 nM
CC(C)N(C)[C@@H]1CC[C@H](N2CC[C@H](Nc3ncnc4ccc(C(F)(F)F)cc34)C2=O)[C@H](NC(=O)[C@H]2C[C@H](NC(=O)CCO[C@H]3CC[C@H](OCCNC(=O)[C@H]4CC(=O)N(C)[C@@H]4c4cccnc4)CC3)C2)C1 [Example 117] | 3.98 nM
CC(C)N(C)[C@@H]1CC[C@H](N2CC[C@H](Nc3ncnc4ccc(C(F)(F)F)cc34)C2=O)[C@H](NC(=O)CCOCCOCCNC(=O)[C@@H]2CCCN2CCOCCNC(=O)[C@H]2CC(=O)N(C)[C@@H]2c2cccnc2)C1 [Example 118, (S)-N-(2-(2-(3-(((1R,2S,5R)-5-(Isopropyl(methyl)amino)-2-((S)-2-oxo-3-((6-(trifluoromethyl)quinazolin-4-yl)amino)pyrrolidin-1-yl)cyclohexyl)amino)-3-oxopropoxy)ethoxy)ethyl)-1-(2-(2-((2S,3S)-1-methyl-5-oxo-2-(pyridin-3-yl)pyrrolidine-3-carboxamido)ethoxy)ethyl)pyrrolidine-2-carboxamide] | 15.8 nM
CN1C(=O)C[C@H](C(=O)NCCOCCOCCC(=O)N[C@H]2CC[C@@H](C(=O)N[C@@H]3C[C@H](NC(C)(C)C)CC[C@@H]3N3CC[C@H](Nc4ncnc5ccc(C(F)(F)F)cc45)C3=O)CC2)[C@H]1c1cccnc1 [Example 120, (2S,3S)-N-(2-(2-(3-(((1S,4s)-4-(((1R,2S,5R)-5-(tert-Butylamino)-2-((S)-2-oxo-3-((6-(trifluoromethyl)quinazolin-4-yl)amino)pyrrolidin-1-yl)cyclohexyl)carbamoyl)cyclohexyl)amino)-3-oxopropoxy)ethoxy)ethyl)-1-methyl-5-oxo-2-(pyridin-3-yl)pyrrolidine-3-carboxamide] | 1.26 nM
CC(C)N(C)[C@@H]1CC[C@H](N2CC[C@H](Nc3ncnc4ccc(C(F)(F)F)cc34)C2=O)[C@H](NC(=O)c2cccc(NCCOCCOCCOCCOCCNC(=O)[C@H]3CC(=O)N(C)[C@@H]3c3cccnc3)n2)C1 [Example 123, N-((1R,2S,5R)-5-(Isopropyl(methyl)amino)-2-((S)-2-oxo-3-((6-(trifluoromethyl)quinazolin-4-yl)amino)pyrrolidin-1-yl)cyclohexyl)-6-((1-((2S,3S)-1-methyl-5-oxo-2-(pyridin-3-yl)pyrrolidin-3-yl)-1-oxo-5,8,11,14-tetraoxa-2-azahexadecan-16-yl)amino)picolinamide] | 15.8 nM
